Experimental data taken from patent publication US20250197388A1, “COMPOUNDS, PHARMACEUTICAL COMPOSITIONS AND METHODS FOR TREATING INFLAMMATORY BOWEL DISEASE” (FLAGSHIP PIONEERING INNOVATIONS VI, LLC, priority 2022, published 2025).
“Also recorded” adds a separate entry of the source. Values belong to the molecule of their own block, whether it stands above or below them.

Legend:
[1] = test system: Zymosan-induced production of IL-12p40 in monocyte-derived dendritic cells; experiment: Monocyte derived DC (MoDC) assay, Zymosan-induced IL-12p40 (Luminex/ELISA); type: cell-based, human
Excerpt: (§1) Monocyte derived DC (MoDC) were differentiated from healthy human donor derived CD14+ monocytes. Commercially available freshly prepared Leukopaks were obtained from healthy blood donor and kept refrigerated on ice before spin centrifuged and the pelleted cells are rinsed and resuspended with MACS buffer (Miltenyi Biotec). Next, CD14+ monocytes were purified using MultiMACS™ Cell24 Separator-Plus instrumentation and reagents according to the manufacturer (Miltenyi Biotec) instructions. The resulting purified CD14^+ cell fraction was washed, enumerated, and subsequently cryopreserved for later use. At the experiment first day cryopreserved CD14′ cells were thawed, rinsed with culture media, and then resuspended in culture media principally composed of RPMI (Invitrogen) supplemented with 10% v/v heat inactivated FBS. For generation of MoDC, these CD14^+ cells were enumerated and seeded into 75 cm^2 tissue culture flasks in 30 mL of culture media supplemented with GM-CSF (40-100 ng/mL) and IL-4 (25 ng/mL). Every other day, half of the culture media was replaced with fresh media (containing the same cytokine supplementation) and after 6-7 days of culture, fully differentiated and matured MoDC were obtained as confirmed by conventional Immuno-phenotype markers (levels of expression or absence of surface CD80, CD83, CD86, CD209, HLA-DR, CD14 & CD64) that were verified by flow-cytometry. Fully differentiated (mature) MoDCs, were seeded into 96 flat-well plates and incubated with a various concentration of the compound described herein, or with control solution (DMSO), or with the pharmacologic inhibitors Cyclosporin-A (CsA) and BAY 61-3606 (which is a known inhibitor of Syk kinase) for 6 hours. Next, the MoDC culture well were added with Dectin-1(CLEC7a1)-ligand (Zymosan at 5 μg/mL), or the Toll-like receptor agonist R848, and further incubated for 18-20 hours. After incubation concluded, culture supernatants were collected, and the levels of inflammatory cytokines and chemokines was measured in a triplicate setting for each condition by Luminex® multiplex assay (FIG. 2) or by ELISA (FIG. 3).

Dectin-1b = biological target: T1, Dectin-1b (Homo sapiens, UniProt Q9BXN2); experiment: Dectin-1 assay, HEK-Blue Dectin-1b SEAP reporter cells stimulated with beta-glucan peptide (BGP); type: cell-based; conditions: for Activity: HEK-Blue Dectin-1b cells, compounds at 1, 10 or 30 μM for 6 hours, then BGP 30 μg/mL 16-18 hours, SEAP adjusted by cell viability
T1 construct: host or cells: HEK-Blue Dectin-1b reporter cells (HEK293-derived)
T1 sequence (Q9BXN2 1-201 isoform Q9BXN2-2): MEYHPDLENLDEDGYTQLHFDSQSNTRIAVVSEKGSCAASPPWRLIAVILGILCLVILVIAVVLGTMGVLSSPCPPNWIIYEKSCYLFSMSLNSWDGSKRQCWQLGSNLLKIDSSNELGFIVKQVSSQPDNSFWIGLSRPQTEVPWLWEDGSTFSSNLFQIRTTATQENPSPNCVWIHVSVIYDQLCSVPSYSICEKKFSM
Protocol: Compounds described herein are added to mammalian cells for bioactivity assessment. The HEK-Blue Dectin-1b cells line (InVivoGen) releases a reporter protein (secreted embryonic alkaline phosphatase, SEAP) to the culture supernatant in response to Dectin-1 activation. HEK-Blue reporter cells were grown in DMEM culture media with 10% decomplemented fetal calf serum (InvivoGen, 1% Pen/Strep antibiotic (InvivoGen), 0.2% Normocin antibiotic (InvivoGen). On the day prior to the assay, cells were seeded in a 96 flat-bottom well plate at 50,000 cells/well and further incubated for 20 hours. On the day of the assay cells were incubated with 1 μM, 10 μM or 30 μM of the compounds described herein or with 1 μM of the SYKi IV Dectin-1b Inhibitor (Millipore) or with DMSO (vehicle control) for 6 hours, followed by the addition of beta-glucan peptide (BGP, a Dectin-1 ligand at 30 μg/mL) and incubation for 16-18 hours. After incubation was concluded, the cultures supernatants were collected and Dectin-1 related activity was assessed by measurement of the SEAP-reporter protein presence, using Quanti-Blue assay (Invivogen) and these values were adjusted by the Cell Viability levels that was assessed using the Cell-Titer-Glo2 Reagent (Promega).
Results represent cell number adjusted SEAP levels in a triplicate setting for each condition and cell numbers and viability corrections reflected less than 5% corrections. See, e.g., FIG. 1 for compound A-3.

[2] = Compound interconversion monitored by 1H-NMR in neutral aqueous buffer; type: physicochemical; conditions: 37° C. in the neutral aqueous buffer
Protocol: This examples provide the kinetics of compounds A-2 and A-3. More specifically, A-6 is a mixture of compounds A-2 and A-3 and interconvert in solutions.
In this example, A-6 was combined with […] of Na3PO4, DCl, and D2O at a pH of 7-7.5. This solution was then monitored using 1H-NMR at 37° C.
Interconversion between compounds A-2 and A-3 was seen and monitored for 5 days. See, Table 1.

[3] = test system: LPS-induced IRF reporter activity; experiment: IRF assay, THP-1 dual reporter cell line (Lucia luciferase) stimulated with LPS; type: cell-based; conditions: for inhibition of LPS-induced IRF reporter activity: THP-1 dual reporter cells, LPS 25 ng/mL, compounds at 1 μM or 10 μM
Protocol: Compounds described herein are added to mammalian cells for bioactivity assessment. The THP-1 dual reporter cell line (InVivoGen) secretes a reporter protein (Lucia luciferase or LUC) in response to activation by the pro-inflammatory bacterial component lipopolysaccharide (LPS). THP-1 dual reporter cells were grown in RPMI 1640 culture medium with 2 mM L-glutamine, 25 mM HEPES, 10% heat-inactivated fetal bovine serum, 100 µg/ml Normocin antibiotic (InvivoGen), Pen-Strep antibiotic (100 U/ml-100 […], InvivoGen). On the day of the assay, cells were seeded in a 96 flat-bottom well plate at 50,000 cells/well and incubated for 2 hours. Cells were then incubated with 1 μM or 10 μM of the compounds described herein or with 1 μM of KK-16 (Selleck), a potent inhibitor of IκB kinases (IKKs) or with DMSO (vehicle control) for 2 hours, followed by the addition of LPS at 25 ng/mL and incubation for 24 hours. After incubation was concluded, the cultures supernatants were collected and IRF related activity was assessed by measurement of the Lucia luciferase, using Quanti-Luc assay (InvivoGen) and these values were adjusted by the Cell Viability levels that was assessed using the Cell-Titer-Glo2 Reagent (Promega).

[4] = test system: LPS-stimulated monocyte-derived dendritic cells; experiment: MoDC assay, LPS-stimulated pro-inflammatory cytokines; type: cell-based, human; conditions: for inhibition of pro-inflammatory cytokines (overall): healthy human donor 14 (FIGS. 9A-9H)
[5] = test system: R848-stimulated monocyte-derived dendritic cells; experiment: MoDC assay, R848-stimulated pro-inflammatory cytokines; type: cell-based, human; conditions: for Gro-α / IL-6 / IL-12p70 / IL-23 / IP-10 / MCP-1 / Mip-1α / TNFα: healthy human donor 14; for inhibition of pro-inflammatory cytokines (overall): healthy human donor 14 (FIGS. 10A-10H)
Excerpt: as §1

time to nearly reach interconversion equilibrium [2]: about 3 hours
SMILES: CN1[C@@H](C(=O)O)CS[C@@H]1[C@@H]1CSC(c2ccccc2O)=N1 (single isomer, unassigned) [Compound A-2]
inhibition of Zymosan-induced production of IL-12p40 ([1]; MoDC from healthy human donors 1, 2 and 3, 15.5 nM to 1 μM (FIGS. 6A-6C)): inhibition
concentration of maximal inhibition of Zymosan-induced IL-12p40 ([1]; donors 1, 2 and 3, the highest concentration tested): 1 µM
Activity (Dectin-1b): <30 µM

SMILES: CN1[C@@H](C(=O)O)CS[C@H]1[C@H]1CSC(c2ccccc2)=N1 (single isomer, unassigned) [Compound F-2]
Activity (Dectin-1b): <30 µM

inhibition of BGP-induced Dectin-1b reporter gene activity / signaling (Dectin-1b; HEK-Dectin-1b cells, range from 1 μM to 30 μM): dose-dependent inhibition
concentration of maximal inhibition of BGP-induced Dectin-1b activity (Dectin-1b; range 1 μM to 30 μM, the maximum concentration tested): 30 µM
SMILES: CN1C([C@@H]2CSC(c3ccccc3O)=N2)SC[C@@H]1C(=O)O (stereo partly drawn) [Compound A6, (4S)-2-((S)-2-(2-hydroxyphenyl)-4,5-dihydrothiazol-4-yl)-3-methylthiazolidine-4-carboxylic acid]
inhibition of LPS-induced IRF reporter activity [3]: shows inhibition of LPS-induced IRF reporter activity
statistical significance of inhibition of LPS-induced IRF reporter activity ([3]; tested at 1 μM (FIG. 8B)): meets statistical significance
Gro-α ([4]; healthy human donor 14): statistically significant decrease
IL-6 ([4]; healthy human donor 14): statistically significant decrease
IL-12p70 ([4]; healthy human donor 14): statistically significant decrease
IL-23 ([4]; healthy human donor 14): statistically significant decrease
IP-10 ([4]; healthy human donor 14): statistically significant decrease
MCP-1 ([4]; healthy human donor 14): statistically significant decrease
Mip-1α ([4]; healthy human donor 14): statistically significant decrease
TNFα ([4]; healthy human donor 14): statistically significant decrease
inhibition of pro-inflammatory cytokines (overall) [4]: inhibit several pro-inflammatory cytokines; also recorded: inhibition of pro-inflammatory cytokines
Gro-α [5]: statistically significant decrease
IL-6 [5]: statistically significant decrease
IL-12p70 [5]: statistically significant decrease
IL-23 [5]: statistically significant decrease
IP-10 [5]: statistically significant decrease
MCP-1 [5]: statistically significant decrease
Mip-1α [5]: statistically significant decrease
TNFα [5]: statistically significant decrease
inhibition of pro-inflammatory cytokines (overall) [5]: inhibit several pro-inflammatory cytokines; also recorded: inhibition of pro-inflammatory cytokines

SMILES: CN1C(C2CSC(c3ccccc3O)=N2)SC[C@@H]1C(=O)O (stereo partly drawn) [Compound A-1, (4S)-2-(2-(2-hydroxyphenyl)-4,5-dihydrothiazol-4-yl)-3-methylthiazolidine-4-carboxylic acid]
Activity (Dectin-1b): <30 µM

SMILES: CN1C(C2CSC(c3ccccc3O)=N2)SC[C@]1(C)C(=O)O (stereo partly drawn) [Compound B-1, (4S)-2-(2-(2-hydroxyphenyl)-4,5-dihydrothiazol-4-yl)-3,4-dimethylthiazolidine-4-carboxylic acid]
Activity ([1]; MoDC assay): <30 µM
Activity (Dectin-1b): <30 µM

SMILES: C#CCCC1(CCNC(=O)[C@H]2CSC(C3CSC(c4ccccc4O)=N3)N2C)N=N1 (stereo partly drawn) [Compound C-1]
Activity (Dectin-1b): <30 µM

SMILES: C#CCCC1(CCNC(=O)[C@H]2CS[C@H]([C@@H]3CSC(c4ccccc4O)=N3)N2C)N=N1 [Compound C-2, (4S)—N-[2-(3-but-3-ynyldiazirin-3-yl)ethyl]-2-[(4S)-2-(2-hydroxyphenyl)-4,5-dihydrothiazol-4-yl]-3-methyl-thiazolidine-4-carboxamide]
Activity (Dectin-1b): <30 µM

SMILES: C#CCCC1(CCNC(=O)[C@H]2CS[C@@H]([C@@H]3CSC(c4ccccc4O)=N3)N2C)N=N1 [Compound C-3, (2S,4S)—N-(2-(3-(but-3-yn-1-yl)-3H-diazirin-3-yl)ethyl)-2-((S)-2-(2-hydroxyphenyl)-4,5-dihydrothiazol-4-yl)-3-methylthiazolidine-4-carboxamide]
Activity (Dectin-1b): <30 µM

SMILES: C#CCCC1(CCOC(=O)[C@H]2CSC(C3CSC(c4ccccc4O)=N3)N2C)N=N1 (stereo partly drawn) [Compound D-1]
Activity (Dectin-1b): <30 µM

SMILES: C[C@]1(C(=O)O)CSC(C2CSC(c3ccccc3O)=N2)N1 (stereo partly drawn) [Compound E-1, (4S)-2-(2-(2-hydroxyphenyl)-4,5-dihydrothiazol-4-yl)-4-methyl-thiazolidine-4-carboxylic acid]
Activity (Dectin-1b): <30 µM

SMILES: CN1C([C@H]2CSC(c3ccccc3O)=N2)SC[C@H]1C(=O)O (stereo partly drawn) [Compound I-100, (4R)-2-((R)-2-(2-hydroxyphenyl)-4,5-dihydrothiazol-4-yl)-3-methylthiazolidine-4-carboxylic acid]
inhibition of LPS-induced IRF reporter activity [3]: shows inhibition of LPS-induced IRF reporter activity
statistical significance of inhibition of LPS-induced IRF reporter activity ([3]; tested at 1 and 10 μM (FIG. 8A)): does not meet statistical significance
Gro-α ([4]; healthy human donor 14): statistically significant decrease
IL-6 ([4]; healthy human donor 14): statistically significant decrease
IL-12p70 ([4]; healthy human donor 14): statistically significant decrease
IL-23 ([4]; healthy human donor 14): statistically significant decrease
MCP-1 ([4]; healthy human donor 14): statistically significant decrease
Mip-1α ([4]; healthy human donor 14): statistically significant decrease
TNFα ([4]; healthy human donor 14): statistically significant decrease
inhibition of pro-inflammatory cytokines (overall) [4]: inhibit several pro-inflammatory cytokines; also recorded: inhibition of pro-inflammatory cytokines
Gro-α [5]: statistically significant decrease
IL-6 [5]: statistically significant decrease
IL-12p70 [5]: statistically significant decrease
IL-23 [5]: statistically significant decrease
IP-10 [5]: statistically significant decrease
MCP-1 [5]: statistically significant decrease
Mip-1α [5]: statistically significant decrease
TNFα [5]: statistically significant decrease
inhibition of pro-inflammatory cytokines (overall) [5]: inhibit several pro-inflammatory cytokines; also recorded: inhibition of pro-inflammatory cytokines
